According to ChEMBL document CHEMBL1125145, “Antimicrobial properties of N3-(iodoacetyl)-L-2,3-diaminopropanoic acid-peptide conjugates” (1990):

Tests used:
Candida albicans [1] = assay: Intracellular cleavage exhibited in Candida albicans ATCC 26278; format: functional
Candida albicans [2] = assay: Rate of transport of compound in Candida albicans ATCC 26278; format: functional

Structure (SMILES) | Cleavage rate (Candida albicans [1]) [µmol/min/mg] | Transport rate (Candida albicans [2]) [µmol/min/mg]
CCC[C@H](NC(=O)[C@@H](N)CCSC)C(=O)N[C@@H](CNC(=O)CI)C(=O)O | 3.8 | 
CCC[C@H](NC(=O)[C@H](N)CCSC)C(=O)N[C@@H](CNC(=O)CI)C(=O)O |  | 0.5
CSCCC(N)C(=O)NC(CNC(=O)CI)C(=O)O (centres undefined) | 3.1 | 1.9
